This experiment concerns the target Phosphodiesterase 3 (Homo sapiens, UniProt Q14432+Q13370). Nature of the experiment: Scintillation Proximity Assay (SPA): The kinase assay is based on the LanthaScreen technology. It is filed as protein assay.

As usually defined, the IC50 is the concentration that inhibits the measured activity by half. A high value points to weaker potency in that assay. Regarding `Cn1cc(-c2cc(F)c3nnc(Sc4ccc5ncc(NCCO)cc5c4)n3c2)cn1`, the IC50 is 13 µM. That is a double-digit micromolar value.

For the origin of these results see ChEMBL document CHEMBL3638676, “Triazolopyridine compounds” (2015).
